# Measured values reported in patent EP0117797A1, “Nitroso ureas, process for their preparation and their therapeutic use” (CENTRE NATIONAL DE LA RECHERCHE SCIENTIFIQUE, priority 1983, dated 1984).
# Experiments:
# [1] = test system: cellules de leucémie L 1210; assay: Oncostatic activity against L 1210 leukaemia (i.p.) in mice, survival T/C; assay type: in vivo, souris F1, (DBA/2XC57 B 1/6); settings: for Dose optimale / T/C max / M.E.D.I. / efficacité (comparison in words): L 1210 i.p.; for T/C max: treated days 1, 5 and 9, suspension in oil, T/C = ∞ when 50 % of the animals are cured, T/C > 125 % = active; for M.E.D.I.: dose plateau of maximum activity corresponding to T/C = ∞; for I = DL50 / D.Opt.: therapeutic index, DL50 divided by optimal dose; for efficacité (comparison in words): 2-chloro-éthylamides compared with the known -NH2 amides (N° 10, 14 et 16)
# Source text: L'activité oncostatique de certains composés de l'invention par comparaison à d'autres nitrosourées connues a été déterminée en suivant le protocole expérimental suivant : • Des souris F1, (DBA/2XC57 B 1/6) sont inoculées avec 10^5 cellules de leucémie L 1210 par voie intrapéritonéale au jour 0 et divisées en 5 groupes. Le premier est le groupe de contrôle et les quatre autres sont traités avec les produits à tester à différentes concentrations, aux jours 1,5 et 9. Les composés sont injectés en suspension dans l'huile. La mortalité des animaux est observée et l'autopsie indique si elle est due à la leucémie ou à l'action toxique de la drogue. Les résultats, pour chaque dose de produit, sont exprimés en T/C (%) (T représente la médiane de survie du groupe traité et C la médiane de survie du groupe témoin T/C = ∞ quand 50 % des animaux sont guéris. T/C > 125 % signifie qu'une drogue est active.
# Ces essais ont été effectués à l'aide de composés de formule [formula] pour différents amino-acides et différentes significations du substituant X (substituant côté C terminal).
# Les significations de X sont les suivantes : • 1) Composés de l'invention : X = -NH-CH2-CH2Cl, -N(CH2-CH2-Cl)2 et -NH-C6H4-N(CH2-CH2-Cl)2 • 2) Composés en dehors de l'invention : X = -NH2 et -NH-C^H3.
# Le tableau précédent rapporte les valeurs DL50, T/C, M.E.D.I. (Maximum efficace dose internal = plateau d'activité maximum correspondant à T/C = ∞), dose optimale et Indice thérapeutique.
# Acute toxicity (DL50) = settings: mouse, in vivo
SMILES,Dose optimale [1] [mg/kg],T/C max [1],M.E.D.I. [1] [mg/kg],I = DL50 / D.Opt. [1],LD50 (Acute toxicity (DL50)) [mg/kg],efficacité (comparison in words) [1],DL50 (Acute toxicity (DL50)) [mg/kg]
O=NN(CCCl)C(=O)NCCCC[C@H](NC(=O)N(CCCl)N=O)C(=O)NCCCl [compound 12],30,∞,20 to 40,"4,50",135,,
O=NN(CCCl)C(=O)N[C@@H](CC(=O)NCCCl)C(=O)NCCCl [compound 3],37,∞,25 to 50,"3,50",130,,
CSCC[C@H](NC(=O)N(CCCl)N=O)C(=O)NCCCl [compound 13],20,∞,10 to 30,"1,60",32,beaucoup plus efficaces,
CC(C)C[C@H](NC(=O)N(CCCl)N=O)C(=O)NCCCl [compound 9],35,∞,15 to 50,"1,80",64,beaucoup plus efficaces,
O=NN(CCCl)C(=O)NCCC(=O)NCCCl [compound 2],35,∞,20 to 50,"2,86",,,100
O=NN(CCCl)C(=O)NCCCC(=O)NCCCl [compound 7],35,∞,20 to 50,"3,57",,,125
C[C@H](NC(=O)N(CCCl)N=O)C(=O)NCCCl [compound 1],20,∞,10 to 30,"1,75",35,,
